Biological target: Mtb20S (Mycobacterium tuberculosis, UniProt P9WHT9)
Format: biochemical

Sequence of Mtb20S (P9WHT9 58-291): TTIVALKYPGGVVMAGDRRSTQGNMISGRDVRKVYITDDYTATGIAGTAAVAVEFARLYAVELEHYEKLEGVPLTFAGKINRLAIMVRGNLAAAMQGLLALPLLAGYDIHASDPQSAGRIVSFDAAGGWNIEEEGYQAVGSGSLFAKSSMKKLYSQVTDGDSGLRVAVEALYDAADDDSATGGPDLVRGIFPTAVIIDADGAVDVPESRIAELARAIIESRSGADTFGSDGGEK

## Cc1cc(C(=O)N[C@@H](CC(=O)N2CCC[C@@H]2c2ccccc2)C(=O)N[C@@H](C)c2ncc(-c3ccccc3F)[nH]2)no1 [B6]
  improved potency against Mtb20S: 10 fold
